Source: patent publication US20230312504A1, “QUINOLINE COMPOUNDS” (Guangzhou Baiyunshan Pharmaceutical Holdings Co., Ltd. …, priority 2020, published 2023)

Tests used:
[1] = Microsome metabolic stability, rat; type: in vitro ADME; details: rat liver microsomes, 1 μM compound, 0.5 mg/mL; read-out: MMS CLint(liver)-R
Experimental: (§1) To evaluate the Phase I metabolic stability of the test compound in animal and human liver microsomes.
(§2) 10 μL of the test compound working solution and 80 μL of microsome working solution (0.625 mg/mL liver microsome protein) were added to the reaction plate and NCF60 plate, respectively, while only microsome working solution was added to the Blank60 plate, then, the above incubation plates were placed in a 37° C. water bath for pre-incubation for approximately 10 minutes.
(§3) After the pre-incubation, 10 μL of a NADPH regeneration system working solution was added into each sample well of all the plates except the NCF60 plate and TO plate to start the reaction, and 10 μL of potassium phosphate buffer was added to each well of the NCF60 plate. The final reaction concentrations of the test sample or control sample were 1 μM, the concentration of the liver microsomes was 0.5 mg/mL.
(§4) After incubation for an appropriate time, 300 μL of a stop solution (acetonitrile solution containing 200 ng/mL tolbutamide) was added to each sample well to stop the reaction; stop solution and then NADPH regeneration system working solution were added to the TO plate in sequence.
(§5) All the sample plates were shaken and centrifuged at 3220 rpm for 20 min, and then 100 μL of supernatant was taken from each well and diluted with 300 μL of pure water for LC-MS/MS analysis. […]

[2] = Pharmacokinetics study of mice; type: in vivo; details: mouse, male CD-1 mice, plasma
Excerpt: The purpose of this experiment was to study the pharmacokinetics of the test compound in the plasma of male CD-1 mice after intravenous injection and oral administration.
The animals were randomly divided into two groups with 2 males in each group. The compounds were formulated into prescribed preparations. Intravenous formulations were formulated with 5% DMS 0/95% (6% hydroxypropyl-β-cyclodextrin) to give a clear solution, and oral preparations were formulated with 0.1% Tween80/0.5% HPMC aqueous solution to give a homogeneous suspension.
Whole blood samples were collected from the saphenous vein of the animals 5 minutes, 15 minutes, 30 minutes, 1 hour, 2 hours, 4 hours, 8 hours, 12 hours, and 24 hours after administration. The whole blood sample was added to the centrifuge tube containing anticoagulant, and centrifuged at 3200 g for 10 minutes at 4° C. The supernatant of plasma was taken, frozen quickly on dry ice, and then stored in a −70±10° C. refrigerator until LC-MS/MS analysis.
WinNonlin™ Version 6.3.0 (Pharsight, Mountain View, Calif.) pharmacokinetic software was used to process the plasma drug concentration data of the compounds with a non-compartmental model. The peak concentration (Cmax), peak time (Tmax) and quantifiable end time were obtained directly from the blood drug concentration-time profile.
The following pharmacokinetic parameters were calculated using the log-linear trapezoid method: Plasma clearance rate (CL), volume of distribution (Vd), elimination phase half-life (T1/2), average residence time of drug in the body from 0 to the end time point (MRT0-last), average residence time of the drug in the body from 0 to infinite time (MRT0-inf), area under the time-plasma concentration curve from 0 to the end time point (AUC0_last), area under the time-plasma concentration curve from 0 to infinite time (AUC0-inf) and bioavailability (F).

[3] = molecular target: CYP3A4 (Homo sapiens (Human), UniProt P08684); experiment: CYP inhibition in human liver microsomes, CYP3A4; type: in vitro ADME; details: 0.05-50 μM
Experimental: (§6) Mixed probe substrate of CYP isozymes were used to evaluate the inhibition of compounds of the present disclosure to human liver microsomal cytochrome P450 isoenzymes (CYP1A2, CYP2C9, CYP2C19, CYP2D6, and CYP3A4).
(§7) The testing compound was dissolved in DMSO to prepare a 10 mM stock solution. 178 μL of the mixture solution of human liver microsomes and substrate was added into non-inhibitor control (NIC) wells and test compound sample wells of the reaction plate, and the reaction plate was placed on ice. 2 μL of blank solvent and test compound working solution was taken from the dilution plate, respectively, and then added into the reaction plate (final concentration: 0.05-50 μM). The reaction plate was preheated in a 37±0.2° C. water bath for 10 minutes. 20 μL of cofactor solution was added into the reaction plate using a liquid handling workstation to initiate the reaction.
(§8) After 10 minutes, 400 μL of stop solution was added to the reaction plate to stop the reaction, and the reaction plate was placed on ice for 5 minutes. […] The peak areas of the substrate and product were detected by liquid chromatography tandem mass spectrometry (LC/MS/MS). […]
(§9) A nonlinear regression analysis of mean percentage activity of the test compound against concentration was performed using SigmaPlot (V.11). The IC50 value was calculated using a three- or four-parameter inverse logarithmic equation. […]

[4] = Microsome metabolic stability, mice; type: in vitro ADME; details: mouse; mice liver microsomes, 1 μM compound, 0.5 mg/mL; read-out: MMS CLint(liver)-M
Experimental: as §1, §2, §3, §4, §5

[5] = molecular target: CYP1A2 (Homo sapiens (Human), UniProt P05177); experiment: CYP inhibition in human liver microsomes, CYP1A2; type: in vitro ADME; details: 0.05-50 μM
Experimental: as §6, §7, §8, §9

[6] = Microsome metabolic stability, human; type: in vitro ADME; details: human liver microsomes, 1 μM compound, 0.5 mg/mL; read-out: MMS CLint(liver)-H
Experimental: as §1, §2, §3, §4, §5

[7] = molecular target: CYP2D6 (Homo sapiens (Human), UniProt P10635); experiment: CYP inhibition in human liver microsomes, CYP2D6; type: in vitro ADME; details: 0.05-50 μM
Experimental: as §6, §7, §8, §9

[8] = molecular target: CYP2C9 (Homo sapiens (Human), UniProt P11712); experiment: CYP inhibition in human liver microsomes, CYP2C9; type: in vitro ADME; details: 0.05-50 μM
Experimental: as §6, §7, §8, §9

[9] = molecular target: CYP2C19 (Homo sapiens (Human), UniProt P33261); experiment: CYP inhibition in human liver microsomes, CYP2C19; type: in vitro ADME; details: 0.05-50 μM
Experimental: as §6, §7, §8, §9

[10] = molecular target: human V804M mutant RET kinase (Homo sapiens (Human), UniProt P07949, V804M); experiment: 33P-labeled kinase activity assay, V804M mutant RET; type: biochemical; details: 33P-ATP at Km concentration
Experimental: (§10) The inhibitory activity of the test compounds against human wild-type and V804M mutant RET kinase was evaluated by measuring IC50 values in a ^33P-labeled kinase activity assay (Reaction Biology Corp).
(§11) Buffer conditions: 20 mM hydroxyethyl-piperazine-ethanesulfonic acid (Hepes) (pH 7.5), 10 mM MgCl2, 1 mM ethylene glycol-bis(aminoethyl ether)-tetraacetic acid (EGTA), 0.02% polyoxyethylene lauryl ether (Brij35), 0.02 mg/mL BSA, 0.1 mM Na3VO4, 2 mM dithiothreitol (DTT), and 1% DMSO.
(§12) Compound handling: testing compounds were dissolved in 100% DMSO to specific concentration. Serial dilution can be conducted using Integra Viaflo Assist in DMSO.
(§13) Procedures: the substrate was dissolved in freshly prepared Reaction Buffer, the test kinase was added into the substrate solution and gently mixed. Compounds in DMSO were added into the above kinase reaction mixture by Acoustic technology (Echo550) and incubate for 20 minutes at room temperature. The concentrations of the compounds in the reaction solutions were 3 μM, 1 μM, 0.333 μM, 0.111 μM, 0.0370 μM, 0.0123 μM, 4.12 nM, 1.37 nM, 0.457 nM and 0.152 nM. […] The reaction was conducted for 120 minutes at room temperature, and radioactivity was detected by filter-binding method. Kinase activity data can be expressed as the percent remaining kinase activity in test samples compared to vehicle (DMSO only) reactions. […]

[11] = Microsome metabolic stability, Beagle; type: in vitro ADME; details: dog; Beagle liver microsomes, 1 μM compound, 0.5 mg/mL; read-out: MMS CLint(liver)-D
Experimental: as §1, §2, §3, §4, §5

[12] = molecular target: human wild-type RET kinase (Homo sapiens (Human), UniProt P07949); experiment: 33P-labeled kinase activity assay, wild-type RET; type: biochemical; details: 33P-ATP at Km concentration; read-out: RET(WT) IC50
Experimental: as §10, §11, §12, §13

[13] = Microsome metabolic stability, cynomolgus monkey; type: in vitro ADME; details: cynomolgus monkey liver microsomes, 1 μM compound, 0.5 mg/mL; read-out: MMS CLint(liver)-C
Experimental: as §1, §2, §3, §4, §5

[14] = 0.5 mg/kg, 0.5 mpk intravenous injection
[15] = 2.5 mg/kg, 2.5 mpk oral administration

CYP2C19, sequence (P33261 whole entry): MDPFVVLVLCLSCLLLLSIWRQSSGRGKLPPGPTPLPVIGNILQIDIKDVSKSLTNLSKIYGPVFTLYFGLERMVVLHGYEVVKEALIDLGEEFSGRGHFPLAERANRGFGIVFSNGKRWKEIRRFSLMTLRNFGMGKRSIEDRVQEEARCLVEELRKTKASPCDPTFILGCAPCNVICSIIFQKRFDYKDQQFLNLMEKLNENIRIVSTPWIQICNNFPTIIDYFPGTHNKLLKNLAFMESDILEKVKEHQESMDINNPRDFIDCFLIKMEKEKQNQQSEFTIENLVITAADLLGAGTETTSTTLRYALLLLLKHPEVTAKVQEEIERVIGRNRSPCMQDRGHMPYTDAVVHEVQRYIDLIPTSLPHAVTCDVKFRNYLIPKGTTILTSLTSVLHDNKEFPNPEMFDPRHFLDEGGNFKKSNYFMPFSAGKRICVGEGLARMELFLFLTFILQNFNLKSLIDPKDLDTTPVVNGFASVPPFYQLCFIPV
CYP2D6, sequence (P10635 whole entry): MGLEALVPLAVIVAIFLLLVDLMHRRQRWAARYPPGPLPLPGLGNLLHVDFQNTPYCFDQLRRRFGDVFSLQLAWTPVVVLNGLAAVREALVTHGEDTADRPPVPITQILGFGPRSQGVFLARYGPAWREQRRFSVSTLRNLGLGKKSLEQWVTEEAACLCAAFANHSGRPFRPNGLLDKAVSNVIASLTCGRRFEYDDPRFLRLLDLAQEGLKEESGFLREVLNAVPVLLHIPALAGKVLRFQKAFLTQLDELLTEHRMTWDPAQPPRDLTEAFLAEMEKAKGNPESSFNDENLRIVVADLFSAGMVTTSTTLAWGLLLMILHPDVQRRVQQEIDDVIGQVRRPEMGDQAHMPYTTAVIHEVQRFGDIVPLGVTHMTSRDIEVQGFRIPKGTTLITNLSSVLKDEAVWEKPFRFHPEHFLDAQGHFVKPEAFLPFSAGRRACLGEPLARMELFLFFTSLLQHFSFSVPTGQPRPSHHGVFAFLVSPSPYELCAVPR
human V804M mutant RET kinase, sequence (P07949 29-1114 V804M): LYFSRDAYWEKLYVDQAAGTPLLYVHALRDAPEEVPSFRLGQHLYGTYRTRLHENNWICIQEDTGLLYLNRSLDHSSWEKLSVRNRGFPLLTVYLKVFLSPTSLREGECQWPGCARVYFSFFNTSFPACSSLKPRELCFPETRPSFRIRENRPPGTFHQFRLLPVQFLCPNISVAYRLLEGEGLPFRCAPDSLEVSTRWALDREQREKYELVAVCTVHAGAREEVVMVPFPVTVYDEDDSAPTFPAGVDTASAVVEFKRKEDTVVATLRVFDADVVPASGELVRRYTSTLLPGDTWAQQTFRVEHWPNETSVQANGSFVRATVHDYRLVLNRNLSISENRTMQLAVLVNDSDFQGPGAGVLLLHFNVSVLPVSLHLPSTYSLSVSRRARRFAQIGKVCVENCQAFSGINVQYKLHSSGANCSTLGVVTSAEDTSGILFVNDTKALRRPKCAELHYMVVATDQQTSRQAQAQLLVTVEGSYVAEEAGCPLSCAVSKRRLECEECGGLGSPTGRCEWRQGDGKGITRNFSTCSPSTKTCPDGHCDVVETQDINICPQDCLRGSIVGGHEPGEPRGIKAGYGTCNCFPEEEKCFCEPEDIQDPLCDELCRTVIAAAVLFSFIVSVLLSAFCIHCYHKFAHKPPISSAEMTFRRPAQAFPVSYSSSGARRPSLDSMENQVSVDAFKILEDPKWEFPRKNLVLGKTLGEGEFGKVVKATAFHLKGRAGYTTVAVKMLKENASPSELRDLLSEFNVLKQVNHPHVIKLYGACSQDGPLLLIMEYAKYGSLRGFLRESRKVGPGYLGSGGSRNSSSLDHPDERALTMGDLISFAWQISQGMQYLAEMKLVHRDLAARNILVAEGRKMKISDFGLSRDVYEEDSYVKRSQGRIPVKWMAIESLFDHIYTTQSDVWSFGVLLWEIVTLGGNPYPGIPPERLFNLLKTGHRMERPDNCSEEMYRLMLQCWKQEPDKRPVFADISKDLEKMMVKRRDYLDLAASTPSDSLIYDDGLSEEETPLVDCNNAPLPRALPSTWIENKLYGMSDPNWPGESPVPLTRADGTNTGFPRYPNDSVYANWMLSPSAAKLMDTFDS
human wild-type RET kinase, sequence (P07949 29-1114): as the sequence (P07949 29-1114 V804M) above, with M776V counted along it
CYP1A2, sequence (P05177 whole entry): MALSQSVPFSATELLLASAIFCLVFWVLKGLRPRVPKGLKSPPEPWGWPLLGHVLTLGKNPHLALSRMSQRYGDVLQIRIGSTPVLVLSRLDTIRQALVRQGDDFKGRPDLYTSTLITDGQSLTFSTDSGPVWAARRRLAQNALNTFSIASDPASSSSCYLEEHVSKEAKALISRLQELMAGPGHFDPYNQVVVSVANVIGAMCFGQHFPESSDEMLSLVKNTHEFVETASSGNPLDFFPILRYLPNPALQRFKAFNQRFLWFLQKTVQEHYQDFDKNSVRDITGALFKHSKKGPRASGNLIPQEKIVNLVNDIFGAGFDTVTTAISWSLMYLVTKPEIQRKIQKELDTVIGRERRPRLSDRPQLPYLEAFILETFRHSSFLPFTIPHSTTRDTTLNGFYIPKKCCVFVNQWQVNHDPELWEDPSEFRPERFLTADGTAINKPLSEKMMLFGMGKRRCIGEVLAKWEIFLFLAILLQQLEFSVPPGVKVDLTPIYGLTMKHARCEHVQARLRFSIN
CYP2C9, sequence (P11712 whole entry): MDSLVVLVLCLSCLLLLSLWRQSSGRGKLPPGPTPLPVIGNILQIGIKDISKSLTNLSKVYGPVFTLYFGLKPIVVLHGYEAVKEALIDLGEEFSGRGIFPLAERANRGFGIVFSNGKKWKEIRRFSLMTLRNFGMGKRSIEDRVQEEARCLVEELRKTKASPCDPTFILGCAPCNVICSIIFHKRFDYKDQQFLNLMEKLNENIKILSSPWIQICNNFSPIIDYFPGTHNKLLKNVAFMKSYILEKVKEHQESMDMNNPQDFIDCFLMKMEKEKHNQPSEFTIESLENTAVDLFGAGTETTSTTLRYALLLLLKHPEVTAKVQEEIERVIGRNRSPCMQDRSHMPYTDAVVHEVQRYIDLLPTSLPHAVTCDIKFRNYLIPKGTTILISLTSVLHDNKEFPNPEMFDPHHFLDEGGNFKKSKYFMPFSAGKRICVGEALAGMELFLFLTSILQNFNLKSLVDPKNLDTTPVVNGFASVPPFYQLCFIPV
CYP3A4, sequence (P08684 whole entry): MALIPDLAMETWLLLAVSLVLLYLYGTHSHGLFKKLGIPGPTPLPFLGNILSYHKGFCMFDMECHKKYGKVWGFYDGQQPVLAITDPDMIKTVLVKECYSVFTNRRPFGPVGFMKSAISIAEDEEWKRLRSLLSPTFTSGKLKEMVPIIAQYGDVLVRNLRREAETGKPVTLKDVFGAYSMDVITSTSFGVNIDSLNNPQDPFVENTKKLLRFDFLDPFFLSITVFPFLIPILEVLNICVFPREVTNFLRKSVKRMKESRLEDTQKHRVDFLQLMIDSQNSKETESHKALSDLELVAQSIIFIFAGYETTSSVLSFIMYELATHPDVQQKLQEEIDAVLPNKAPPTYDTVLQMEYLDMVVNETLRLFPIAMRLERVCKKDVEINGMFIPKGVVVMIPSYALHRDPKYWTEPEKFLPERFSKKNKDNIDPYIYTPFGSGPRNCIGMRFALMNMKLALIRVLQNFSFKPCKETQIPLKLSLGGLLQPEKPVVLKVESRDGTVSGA

CLint scaled at 1 μM [1]: < 17.3 mL/min/kg
AUC(0-inf) [2, 14]: 5.19 µM·h
C0 [2, 14]: 1300 nM
clearance [2, 14]: 2.68 mL/min/kg
half-life [2, 14]: 6.93 h
Vd ([2]; 0.5 mg/kg, 0.5 mpk intravenous injection, read-out: Vdss): 1.52 L/kg
AUC(0-inf) [2, 15]: 12.5 µM·h
Cmax [2, 15]: 958 nM
Tmax [2, 15]: 8 h
half-life [2, 15]: 5.16 h
IC50 [3]: > 50 µM
CLint scaled at 1 μM [4]: 88.5 mL/min/kg
IC50 [5]: > 50 µM
CLint scaled at 1 μM [6]: 20.7 mL/min/kg
IC50 [7]: 18.8 µM
IC50 [8]: 12.5 µM
IC50 [9]: 16.9 µM
IC50 [10]: 0.0009 µM
CLint scaled at 1 μM [11]: 22.5 mL/min/kg
IC50 [12]: 0.0005 µM
CLint scaled at 1 μM [13]: 127 mL/min/kg
Structure (SMILES): CCN1CCN(Cc2cc(F)c(NC(=O)Cc3ccc(-c4cnc5cc(OC)c(OC)cc5c4)nc3)cc2C(F)(F)F)CC1 [Compound 1]
